One data set addresses T1, human Frataxin (FXN) (Homo sapiens, UniProt Q16595).
T1 construct: D91-A210, N-terminal 6xHis-GST tag cut with thrombin; E. coli BL21; 15N-labelled
T1 sequence (Q16595 91-210): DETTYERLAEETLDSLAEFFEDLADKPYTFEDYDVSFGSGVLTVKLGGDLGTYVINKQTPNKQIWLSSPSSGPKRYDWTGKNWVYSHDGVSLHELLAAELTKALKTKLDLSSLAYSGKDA
The data set can be described thus: NMR 1H-15N SOFAST-HMQC titration, chemical shift perturbation, Hill fit. Type of data set: binding.

Data set [1] deals with the molecule itself. Nature of the data set: SEC; Sd200/16/600 gel filtration column, last step of the purification; buffer with 50 mM MOPS-Tris pH 8.0, 100 mM KCl, 1% sodium cholate, 10% glycerol, 100 uM TCEP. (SEC sorts molecules by how far they enter the pores of the column.)

By EC50 is commonly meant the midpoint of the concentration-response curve. By stoichiometry N is commonly meant the number of molecules, sites or subunits per partner or assembly.

On to `C=CC1=C(C)c2cc3[nH]c(cc4nc(cc5[nH]c(cc1n2)c(C)c5CCC(=O)O)C(CCC(=O)O)=C4C)c(C)c3C=C` [Protoporphyrin IX], for which, at human Frataxin (FXN), the EC50 was found to be 140 µM.

B1: human ferrochelatase (residues R65 to L423) (enzyme, UniProt P22830 65-423, looked up)
chain: RKPKTGILMLNMGGPETLGDVHDFLLRLFLDRDLMTLPIQNKLAPFIAKRRTPKIQEQYRRIGGGSPIKIWTSKQGEGMVKLLDELSPNTAPHKYYIGFRYVHPLTEEAIEEMERDGLERAIAFTQYPQYSCSTTGSSLNAIYRYYNQVGRKPTMKWSTIDRWPTHHLLIQCFADHILKELDHFPLEKRSEVVILFSAHSLPMSVVNRGDPYPQEVSATVQKVMERLEYCNPYRLVWQSKVGPMPWLGPQTDESIKGLCERGRKNILLVPIAFTSDHIETLYELDIEYSQVLAKECGVENIRRAESLNGNPLFSKALADLVHSHIQSNELCSKQLTLSCPLCVNPVCRETKSFFTSQQL
notes: ferrochelatase, human, residues R65 to L423; Eluted as a homodimer (88 kDa); The tag is inferred; no cleavage is described; also called FCH; FECH; source: recombinant expression from pET28a in Luria-Bertani media, purified (cobalt HisTrap, gel filtration)
Take B1: the “stoichiometry N” value in data set [1] is 2.

(Values after paper PMC9866752 (Life, 2023).)
